{"source": "patent US7759345B2", "about": "“Antitumoral derivatives of ET-743” (priority 2001, dated 2010)", "key": {"A-549": {"tested_on": "A-549", "assay": "Inhibition of cells growth by colorimetric assay (SRB), A-549", "type": "cell-based", "conditions": "SRB, 48 hours exposure; for GI50 / LC50 (concentration for 50% cell killing): Homo sapiens, A549, 48 h; for TGI A-549 / GI50: A-549; for GI50: read-out: GI50 A-549; for LC50 (concentration for 50% cell killing): read-out: LC50 A-549, A-549", "outline": "(§1)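 Cells in RPMI 1640 with 10% FBS were seeded at 5×10^3 per well, allowed 18 h to attach, then exposed to compound (10 to 10^−8 μg/ml, in DMSO/EtOH/PBS 0.5:0.5:99) for 48 h. After TCA fixation and SRB staining, bound dye was solubilized in Tris and OD read at 490 nm; GI, TGI and LC derived from triplicates.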"}, "SK-MEL-28": {"tested_on": "SK-MEL-28", "assay": "Inhibition of cells growth by colorimetric assay (SRB), SK-MEL-28", "type": "cell-based", "conditions": "SRB, 48 hours exposure; for GI50 / CC50: Homo sapiens, SK-MEL-28, 48 h; for GI50 / TGI MEL-28: MEL-28; for GI50: read-out: GI50 MEL-28; for CC50: read-out: LC50 MEL-28, MEL-28", "outline": "as §1"}, "HT-29": {"tested_on": "HT-29", "assay": "Inhibition of cells growth by colorimetric assay (SRB), HT-29", "type": "cell-based", "conditions": "SRB, 48 hours exposure; for GI50 / LC50 (concentration for 50% cell killing): Homo sapiens, HT-29, 48 h; for TGI HT-29 / GI50: HT-29; for GI50: read-out: GI50 HT-29; for LC50 (concentration for 50% cell killing): read-out: LC50 HT-29, HT-29", "outline": "as §1"}, "SW620": {"tested_on": "SW620", "assay": "Inhibition of cells growth by colorimetric assay (SRB), SW620", "type": "cell-based", "conditions": "for LC50 / GI50: Homo sapiens; for LC50: SW-620, 48 h, read-out: LC50 SW-620; for GI50 / TGI SW-620: SW-620, SRB, 48 hours exposure; for GI50: read-out: GI50 SW-620", "method": "(§2) 2°.—Inhibition of Cells Growth by Colorimetric Assay.\n(§3) A colorimetric type of assay, using sulforhodamine B (SRB) reaction has been adapted for a quantitative measurement of cell growth and viability [following the technique described by Philip Skehan, et al. (1990), New colorimetric cytotoxicity assay for anticancer drug screening, J. Natl. Cancer Inst., 82:1107-1112]\n(§4) This form of the assay employs 96 well cell culture microplates of 9 mm diameter (Faircloth, 1988; Mosmann, 1983). Most of the cell lines are obtained from American Type Culture Collection (ATCC) derived from different human cancer types.\n(§5) Cells are maintained in RPMI 1640 10% FBS, supplemented with 0.1 g/l penicillin and 0.1 g/l streptomycin sulfate and then incubated at 37° C., 5% CO2 and 98% humidity. For the experiments, cells were harvested from subconfluent cultures using trypsin and resuspended in fresh medium before plating.\n(§6) Cells are seeded in 96 well microtiter plates, at 5×10^3 cells per well in aliquots of 195 μl medium, and they are allowed to attach to the plate surface by growing in drug free medium for 18 hours. Afterward, samples are added in aliquots of 5 μl in a ranging from 10 to 10^−8 μg/ml, dissolved in DMSO/EtOH/PBS (0.5:0.5:99). After 48 hours exposure, the antitumor effect are measured by the SRB methodology: cells are fixed by adding 50 μl of cold 50% (wt/vol) trichloroacetic acid (TCA) and incubating for 60 minutes at 4° C. Plates are washed with deionized water and dried. One hundred μl of SRB solution (0.4% wt/vol in 1% acetic acid) is added to each microtiter well and incubated for 10 minutes at room temperature. Unbound SRB is removed by washing with 1% acetic acid. Plates are air dried and bound stain is solubilized with Tris buffer. Optical densities are read on a automated spectrophotometric plate reader at a single wavelength of 490 nm.\n(§7) The values for mean+/−SD of data from triplicate wells are calculated. Some parameters for cellular responses can be calculated: GI=growth inhibition, TGI=total growth inhibition (cytostatic effect) and LC=cell killing (cytotoxic effect).\n(§8) Obtained results may predict the usefulness of a certain drug as a potential cancer treatment. For this technique, compounds which show GI50 values smaller than 10 μg/ml are selected to continue with further studies. GI50's data allow to predict that not only could a drug be cystostatic, but also it could have a potential in terms of tumor reduction."}, "DU-145": {"tested_on": "DU-145", "assay": "Inhibition of cells growth by colorimetric assay (SRB), DU-145", "type": "cell-based", "conditions": "SRB, 48 hours exposure; for GI50 / CC50: Homo sapiens, DU-145, 48 h; for TGI DU-145 / GI50: DU-145; for GI50: read-out: GI50 DU-145; for CC50: read-out: LC50 DU-145, DU-145", "outline": "as §1"}, "MCF-7": {"tested_on": "MCF-7", "assay": "Inhibition of cells growth by colorimetric assay (SRB), MCF-7", "type": "cell-based", "conditions": "for CC50 / GI50: Homo sapiens; for CC50: MCF7, 48 h, read-out: LC50 MCF; for GI50: MCF7, read-out: GI50 MCF; for GI50 / TGI MCF: MCF, SRB, 48 hours exposure", "method": "as §2, §3, §4, §5, §6, §7, §8"}, "MDA-MB-231": {"tested_on": "MDA-MB-231", "assay": "Inhibition of cells growth by colorimetric assay (SRB), MDA-MB-231", "type": "cell-based", "conditions": "for CC50 / GI50: Homo sapiens; for CC50: MDA-MB-231, 48 h, read-out: LC50 MB-231; for GI50: MDA-MB-231, read-out: GI50 MB-231; for GI50 / TGI MB-231: MB-231, SRB, 48 hours exposure", "method": "as §2, §3, §4, §5, §6, §7, §8"}, "A-498": {"tested_on": "A-498", "assay": "Inhibition of cells growth by colorimetric assay (SRB), A-498", "type": "cell-based", "conditions": "for TGI A-498 / GI50: SRB, 48 hours exposure, A-498; for LC50 / GI50: Homo sapiens; for LC50: A498, 48 h, read-out: LC50 A-498; for GI50: A498, read-out: GI50 A-498", "method": "as §2, §3, §4, §5, §6, §7, §8"}}, "data": [{"smiles": "COc1cc2c(cc1OC(=O)CCc1ccccc1)CCN[C@]21CS[C@@H]2c3c(OC(C)=O)c(C)c4c(c3[C@H](COC1=O)N1C2[C@H]2c3c(cc(C)c(OC)c3O)C[C@@H]([C@@H]1O)N2C)OCO4", "note": "(some centres unmarked) [Compound 72]", "values": [{"measurement": "TGI A-549", "setting": "A-549", "result": "3.36E-09"}, {"measurement": "GI50", "setting": "A-549", "result": 1.12, "unit": "nM"}, {"measurement": "LC50 (concentration for 50% cell killing)", "setting": "A-549", "result": 7.83, "unit": "nM"}, {"measurement": "GI50", "setting": "SK-MEL-28", "result": 2.24, "unit": "nM"}, {"measurement": "CC50", "setting": "SK-MEL-28", "result": 7.83, "unit": "nM"}, {"measurement": "TGI MEL-28", "setting": "SK-MEL-28", "result": "3.36E-09"}, {"measurement": "TGI HT-29", "setting": "HT-29", "result": "7.83E-09"}, {"measurement": "GI50", "setting": "HT-29", "result": 2.24, "unit": "nM"}, {"measurement": "LC50 (concentration for 50% cell killing)", "setting": "HT-29", "result": 11.2, "unit": "nM"}, {"measurement": "LC50", "setting": "SW620", "result": 11.2, "unit": "nM"}, {"measurement": "GI50", "setting": "SW620", "result": 2.24, "unit": "nM"}, {"measurement": "TGI SW-620", "setting": "SW620", "result": "3.36E-09"}, {"measurement": "TGI DU-145", "setting": "DU-145", "result": "3.36E-09"}, {"measurement": "GI50", "setting": "DU-145", "result": 2.24, "unit": "nM"}, {"measurement": "CC50", "setting": "DU-145", "result": 8.95, "unit": "nM"}, {"measurement": "CC50", "setting": "MCF-7", "result": 11.2, "unit": "nM"}, {"measurement": "GI50", "setting": "MCF-7", "result": 2.24, "unit": "nM"}, {"measurement": "TGI MCF", "setting": "MCF-7", "result": "4.47E-09"}, {"measurement": "CC50", "setting": "MDA-MB-231", "result": 11.2, "unit": "nM"}, {"measurement": "GI50", "setting": "MDA-MB-231", "result": 2.24, "unit": "nM"}, {"measurement": "TGI MB-231", "setting": "MDA-MB-231", "result": "3.36E-09"}, {"measurement": "TGI A-498", "setting": "A-498", "result": "4.47E-09"}, {"measurement": "LC50", "setting": "A-498", "result": 11.2, "unit": "nM"}, {"measurement": "GI50", "setting": "A-498", "result": 2.24, "unit": "nM"}, {"measurement": "Toxicity Data Liver", "setting": "Liver", "result": "1.55E-08"}, {"measurement": "Toxicity Data Heart", "setting": "Heart", "result": "3.78E-08"}, {"measurement": "Toxicity Data Myelo", "setting": "Myelo", "result": "2.15E-08"}, {"measurement": "Toxicity Data Skeletal", "setting": "Skeletal", "result": "1.32E-08"}, {"measurement": "Toxicity Data Kidney", "setting": "Kidney", "result": "1.85E-08"}]}, {"smiles": "COc1cc2c(cc1OC(=O)CCCl)CCN[C@]21CS[C@@H]2c3c(OC(C)=O)c(C)c4c(c3[C@H](COC1=O)N1C2[C@H]2c3c(cc(C)c(OC)c3O)C[C@@H]([C@@H]1O)N2C)OCO4", "note": "(some centres unmarked) [Compound 73]", "values": [{"measurement": "TGI A-549", "setting": "A-549", "result": "2.35E-09"}, {"measurement": "GI50", "setting": "A-549", "result": 0.352, "unit": "nM"}, {"measurement": "LC50 (concentration for 50% cell killing)", "setting": "A-549", "result": 5.87, "unit": "nM"}, {"measurement": "GI50", "setting": "SK-MEL-28", "result": 0.822, "unit": "nM"}, {"measurement": "CC50", "setting": "SK-MEL-28", "result": 3.52, "unit": "nM"}, {"measurement": "TGI MEL-28", "setting": "SK-MEL-28", "result": "9.39E-10"}, {"measurement": "TGI HT-29", "setting": "HT-29", "result": "7.04E-09"}, {"measurement": "GI50", "setting": "HT-29", "result": 0.939, "unit": "nM"}, {"measurement": "LC50 (concentration for 50% cell killing)", "setting": "HT-29", "result": 10.6, "unit": "nM"}, {"measurement": "LC50", "setting": "SW620", "result": 9.39, "unit": "nM"}, {"measurement": "GI50", "setting": "SW620", "result": 0.352, "unit": "nM"}, {"measurement": "TGI SW-620", "setting": "SW620", "result": "1.17E-09"}, {"measurement": "TGI DU-145", "setting": "DU-145", "result": "3.52E-10"}, {"measurement": "GI50", "setting": "DU-145", "result": 0.235, "unit": "nM"}, {"measurement": "CC50", "setting": "DU-145", "result": 0.939, "unit": "nM"}, {"measurement": "CC50", "setting": "MCF-7", "result": 11.7, "unit": "nM"}, {"measurement": "GI50", "setting": "MCF-7", "result": 0.704, "unit": "nM"}, {"measurement": "TGI MCF", "setting": "MCF-7", "result": "3.52E-09"}, {"measurement": "CC50", "setting": "MDA-MB-231", "result": 1.17, "unit": "nM"}, {"measurement": "GI50", "setting": "MDA-MB-231", "result": 0.235, "unit": "nM"}, {"measurement": "TGI MB-231", "setting": "MDA-MB-231", "result": "4.69E-11"}, {"measurement": "TGI A-498", "setting": "A-498", "result": "7.04E-10"}, {"measurement": "LC50", "setting": "A-498", "result": 3.52, "unit": "nM"}, {"measurement": "GI50", "setting": "A-498", "result": 0.352, "unit": "nM"}]}]}
